Read-outs that look alike come from different tables or passages of the source.
Columns and labels:
ATF4 = ATF4 expression inhibition assay (ATF4 5'UTR luciferase reporter, Tg-stressed HEK293T cells); type: cell-based, human; settings: Homo sapiens, HEK-293T, 3 h; for inhibition at 0.1 µM: read-out: % ATF4 inhibition at 100 nM; for IC50: read-out: ATF4 inhbition IC50; for inhibition at 1 µM: read-out: % ATF4 inhibition at 1 μM
Procedure: The ATF4 reporter was prepared by fusing the human full length 5′UTR of ATF4 (NCBI Accession No. BC022088.2) upstream of the firefly luciferase coding sequence lacking the initiator methionine. The fused sequence was cloned into pLenti-EF1a-C-Myc-DDK-IRES-Puro cloning vector (Origen #PS100085) using standard methods. Virus production was carried out by using Lenti-X™ Packaging Single Shots Protocol (Clonetech #631276). Viral particles were used to transduce HEK293T cells (ATCC #CRL-3216, ATCC Manassas, Va.), which were subsequently selected with puromycin to generate stable cell line. Cells were maintained at 37° C. and 5% CO2 in DMEM-F12 (Hyclone #SH30023.02) supplemented with 10% heat-inactivated fetal bovine serum (Gibco #16000-044), 2 mM L-glutamine (Gibco #25030-081), 100 U/ml penicillin, and 100 μg/ml streptomycin (Gibco #15140-122).
HEK293T cells carrying the ATF4 luciferase reporter were plated on 96-well plates (Nunc) at 10,000 cells per well. Cells were treated two days after seeding with 100 nM thapsigargin (Tg) (Sigma-Aldrich #T9033) in the presence of 100 nM or 1 μM. For the assessment of the half-maximal inhibitory concentration (IC50) for selected compounds, dose-response assays were performed. Compounds were serially diluted using DMSO ranging from 0.1 nM to 1 μM. Cells without treatment or cells treated with Tg alone were used as controls. Assay plates containing cells were incubated for 3 hours at 37° C.
Luciferase reactions were performed using Luciferase Assay System (Promega #E1501) as specified by the manufacturer. Luminescence was read with an integration time of 1 s and a gain of 110 using a Cytation-5 multi-mode microplate reader (BioTek). Relative luminescence units were normalized to Tg treatment (0% inhibition) and untreated cells (100% inhibition) and the percentage of ATF4 inhibition was calculated.
Percentages of ATF4 inhibition after induction with Tg in the presence of 100 nM or 1 μM of certain test compounds are shown in Table 2. Also shown in Table 2 is the calculated IC50 for certain test compounds. […] Accordingly, inhibition of ATF4 expression as a result of the test compound indicates suppression of the ISR pathway.

[1] = system: Chinese hamster ovary (CHO) cells; test: Protein translation assay (puromycin labelling, CHO cells); type: cell-based; settings: media alone = 100%; for activity at 1 µM: Cricetulus griseus, CHO; for % Recovery of protein expression (100 nM test compound): 100 nM compound
Procedure: Chinese hamster ovary (CHO) cells were maintained at 37° C. and 5% CO2 in Dulbecco's Modified Eagle's Media (DMEM) supplemented with 10% fetal bovine serum, 2 mM L-glutamine, 100 U/ml penicillin, and 100 μg/ml streptomycin. After reaching 80% of confluence, cells were detached and seeded on 6 well plates in complete media, allowed to recover overnight and treated for 2 hours with 1 μM of the test compound (to assess protein synthesis levels in unstressed condition), or for 1 hour with 100 nM or 1 μM of the test compound and then co-treated with 300 nM Tg and 100 nM or 1 μM of the test compound (to assess the recovery of protein synthesis in a stressed condition). Cells treated with Tg alone were used as controls.
After the 2 hours treatments, media were replaced by adding 10 μg/ml puromycin (Sigma Aldrich #P8833) in complete media for 30 min. Media were removed and cells were lysed with SDS-PAGE lysis buffer. Lysates were transferred to 1.5 ml tubes and sonicated for 3 min and total protein amount were quantified using BCA Protein Assay Kit (Pierce). Equal amount of protein (30 μg) was loaded on SDS-PAGE gels. Proteins were transferred onto 0.2 μm PVDF membranes (BioRad) and probed with primary antibodies diluted in Tris-buffered saline supplemented with 0.1% Tween 20 (Merck #S6996184 505) and 3% bovine serum albumin (Rockland #BSA-50).
Puromycin (12D10) (Merck #MABE343) and β-actin (Sigma Aldrich #A5441) antibodies were used as primary antibody. A HRP-conjugated secondary antibody (Rockland) was employed to detect immune-reactive bands using enhanced chemiluminescence (ECL Western Blotting Substrate, Pierce). Quantification of protein bands was done by densitometry using ImageJ software.
Percent increase of protein synthesis in unstressed cells (without Tg treatment) in the presence of media alone or certain test compounds is shown in Table 3 The percentage levels were normalized to the media alone condition, which correspond to 100% protein synthesis.
Percent recovery of protein synthesis in stressed cells (with Tg treatment) due to the test compounds at 100 nM or 1 μM is also shown in Table 3. The levels were normalized to the media alone and to Tg alone conditions, which correspond to 100% and 0% respectively.

[2] = 100 nM test compound, 100 nM thapsigargin, 3 hours, HEK293T ATF4 luciferase reporter
[3] = 100 nM thapsigargin, 3 hours, HEK293T ATF4 luciferase reporter
[4] = 1 μM test compound, 100 nM thapsigargin, 3 hours, HEK293T ATF4 luciferase reporter
[5] = 2 h, unstressed CHO cells, 1 μM, 2 hours, read-out: % Protein synthesis in unstressed cells (1 μM test compound)
[6] = CHO cells stressed with 300 nM Tg, 1 μM compound, Tg alone = 0%, read-out: % Recovery of protein expression (1 μM test compound)
[7] = CHO cells stressed with 300 nM Tg, Tg alone = 0%

With `O=C(COc1ccc(Cl)c(F)c1)NN1CCN(C[C@@H](O)COc2ccc(Cl)c(F)c2)CC1` (single isomer, unassigned) [Compound 50] the inhibition at 0.1 µM (ATF4; [2]) was 97.2%, the IC50 (ATF4; [3]) was 1.93 nM and the inhibition at 1 µM (ATF4; [4]) was 100%. It also gave an activity at 1 µM [1, 5] of 96.8% and an activity at 1 µM [1, 6] of 7.4%.

With `O=C(COc1ccc(Cl)c(F)c1)NN1CCN(C[C@H](O)COc2ccc(Cl)c(F)c2)CC1` (single isomer, unassigned) [Compound 51] the inhibition at 0.1 µM (ATF4; [2]) was 79.3%, the IC50 (ATF4; [3]) was 19.8 nM and the inhibition at 1 µM (ATF4; [4]) was 100%. It also gave an activity at 1 µM [1, 5] of 110% and an activity at 1 µM [1, 6] of 22.1%.

With `O=C(COc1ccc(Cl)c(F)c1)NN1CCC(NC[C@@H](O)COc2ccc(Cl)c(F)c2)CC1` (single isomer, unassigned) [Compound 52] the inhibition at 0.1 µM (ATF4; [2]) was 75.3%, the IC50 (ATF4; [3]) was 26.9 nM and the inhibition at 1 µM (ATF4; [4]) was 81.2%. It also gave an activity at 1 µM [1, 5] of 113% and an activity at 1 µM [1, 6] of 75.8%.

In the case of `O=C(COc1ccc(Cl)c(F)c1)NC1CCN(NC(=O)c2ccc3cc(Cl)ccc3n2)CC1` [Compound 1, 6-chloro-N-(4-(2-(4-chloro-3-fluorophenoxy)acetamido)piperidin-1-yl)quinoline-2-carboxamide], the inhibition at 0.1 µM (ATF4; [2]) is reported as 93.7%, the IC50 (ATF4; [3]) is reported as 3.6 nM and the inhibition at 1 µM (ATF4; [4]) is reported as 97.9%. For the same compound, the “% Recovery of protein expression (100 nM test compound)” value (shortened to “% Recovery of protein expression”) [1, 7] was 88.6%, the activity at 1 µM [1, 5] was 112% and the activity at 1 µM [1, 6] was 218%.

`O=C(COc1ccc(Cl)c(F)c1)NC1CCN(NC(=O)c2cc3cc(Cl)ccc3o2)CC1` [Compound 2, 5-chloro-N-(4-(2-(4-chloro-3-fluorophenoxy)acetamido)piperidin-1-yl)benzofuran-2-carboxamide] was tested, and the inhibition at 0.1 µM (ATF4; [2]) was 87.1%, the IC50 (ATF4; [3]) was 18.4 nM and the inhibition at 1 µM (ATF4; [4]) was 97.6%. The “% Recovery of protein expression” value [1, 7] was 40.2%, the activity at 1 µM [1, 5] was 87.5% and the activity at 1 µM [1, 6] was 123%.

In the case of `O=C(COc1ccc(Cl)c(F)c1)NN1CCC(NC(=O)c2ccc3cc(Cl)ccc3n2)CC1` [Compound 3, 6-chloro-N-(1-(2-(4-chloro-3-fluorophenoxy)acetamido)piperidin-4-yl)quinoline-2-carboxamide], the inhibition at 0.1 µM (ATF4; [2]) is reported as 88.1%, the IC50 (ATF4; [3]) is reported as 10.6 nM and the inhibition at 1 µM (ATF4; [4]) is reported as 92.2%. For the same compound, the “% Recovery of protein expression” value [1, 7] was 81.6%, the activity at 1 µM [1, 5] was 152% and the activity at 1 µM [1, 6] was 190%.

Work on `O=C(COc1ccc(Cl)c(F)c1)NN1CCC(NC(=O)c2cc3cc(Cl)ccc3o2)CC1` [Compound 5, 5-chloro-N-(1-(2-(4-chloro-3-fluorophenoxy)acetamido)piperidin-4-yl)benzofuran-2-carboxamide] yielded an inhibition at 0.1 µM (ATF4; [2]) of 85.7%, an IC50 (ATF4; [3]) of 18.8 nM and an inhibition at 1 µM (ATF4; [4]) of 93.7%. For the same compound, the “% Recovery of protein expression” value [1, 7] was −7.1%, the activity at 1 µM [1, 5] was 135% and the activity at 1 µM [1, 6] was 110%.

With `O=C(COc1ccc(Cl)c(F)c1)NN1CCN(CC(O)COc2ccc(Cl)c(F)c2)CC1` (centres unmarked) [Compound 6, 2-(4-chloro-3-fluorophenoxy)-N-(4-(3-(4-chloro-3-fluorophenoxy)-2-hydroxypropyl)piperazin-1-yl)acetamide] the inhibition at 0.1 µM (ATF4; [2]) was 75.9%, the IC50 (ATF4; [3]) was 30.8 nM and the inhibition at 1 µM (ATF4; [4]) was 83.8%. For the same compound, the “% Recovery of protein expression” value [1, 7] was 16.7%, the activity at 1 µM [1, 5] was 97.9% and the activity at 1 µM [1, 6] was 105%.

Compound `O=C(COc1ccc(Cl)c(F)c1)NN1CCC(NCC(O)COc2ccc(Cl)c(F)c2)CC1` (centres unmarked) [Compound 8, 2-(4-chloro-3-fluorophenoxy)-N-(4-((3-(4-chloro-3-fluorophenoxy)-2-hydroxypropyl)amino)piperidin-1-yl)acetamide] has an inhibition at 0.1 µM (ATF4) of 44.2%, an inhibition at 1 µM (ATF4) of 70.9% and an IC50 (ATF4) of 153 nM. For the same compound, the activity at 1 µM [1, 5] was 121% and the activity at 1 µM [1, 6] was 52.1%.

Compound `O=C(NN1CCN(CC(O)COc2ccc(Cl)c(F)c2)CC1)c1ccc2cc(Cl)ccc2c1` (centres unmarked) [Compound 14, 6-chloro-N-(4-(3-(4-chloro-3-fluorophenoxy)-2-hydroxypropyl)piperazin-1-yl)-2-naphthamide] has an inhibition at 0.1 µM (ATF4) of 89.3%, an inhibition at 1 µM (ATF4) of 98.9% and an IC50 (ATF4) of 10.2 nM. The activity at 1 µM [1, 5] was 139% and the activity at 1 µM [1, 6] was 175%.

`O=C(NN1CCN(CC(O)COc2ccc(Cl)c(F)c2)CC1)c1ccc2cc(Cl)ccc2n1` (centres unmarked) [Compound 15, 6-chloro-N-(4-(3-(4-chloro-3-fluorophenoxy)-2-hydroxypropyl)piperazin-1-yl)quinoline-2-carboxamide] was tested, and the inhibition at 0.1 µM (ATF4) was 87.8%, the inhibition at 1 µM (ATF4) was 100% and the IC50 (ATF4) was 12.4 nM. The activity at 1 µM [1, 5] was 119% and the activity at 1 µM [1, 6] was 248%.

Work on `O=C(COc1ccc(Cl)c(F)c1)NN1CCN(CCCOc2ccc(Cl)c(F)c2)CC1` [Compound 16, 2-(4-chloro-3-fluorophenoxy)-N-(4-(3-(4-chloro-3-fluorophenoxy)propyl)piperazin-1-yl)acetamide] yielded an inhibition at 0.1 µM (ATF4) of 46.3%, an inhibition at 1 µM (ATF4) of 91.6% and an IC50 (ATF4) of 125 nM. It also gave an activity at 1 µM [1, 5] of 66.1% and an activity at 1 µM [1, 6] of -5.5%.

Compound `O=C(NN1CCN(CCCOc2ccc(Cl)c(F)c2)CC1)c1ccc2cc(Cl)ccc2n1` [Compound 17, 6-chloro-N-(4-(3-(4-chloro-3-fluorophenoxy)propyl)piperazin-1-yl)quinoline-2-carboxamide] has an inhibition at 0.1 µM (ATF4) of 58.6%, an inhibition at 1 µM (ATF4) of 92.7% and an IC50 (ATF4) of 79.1 nM. The activity at 1 µM [1, 5] was 117% and the activity at 1 µM [1, 6] was 188%.

In the case of `O=C(NN1CCN(CCCOc2ccc(Cl)c(F)c2)CC1)c1cc2cc(Cl)ccc2o1` [Compound 18, 5-chloro-N-(4-(3-(4-chloro-3-fluorophenoxy)propyl)piperazin-1-yl) benzofuran-2-carboxamide], the inhibition at 0.1 µM (ATF4) is reported as 59.1%, the inhibition at 1 µM (ATF4) is reported as 94.6% and the IC50 (ATF4) is reported as 76.3 nM. It also gave an activity at 1 µM [1, 5] of 89.3% and an activity at 1 µM [1, 6] of 143%.

`O=C(NN1CCN(CC(O)COc2ccc(Cl)c(F)c2)CC1)c1cc2cc(Cl)ccc2o1` (centres unmarked) [Compound 19, 5-chloro-N-(4-(3-(4-chloro-3-fluorophenoxy)-2-hydroxypropyl)piperazin-1-yl)benzofuran-2-carboxamide] gave an inhibition at 0.1 µM (ATF4) of 87.3%, an inhibition at 1 µM (ATF4) of 95.8% and an IC50 (ATF4) of 11.5 nM. For the same compound, the activity at 1 µM [1, 5] was 115% and the activity at 1 µM [1, 6] was 175%.

`O=C(NN1CCN(CC(O)COc2ccc(C(F)(F)F)cc2)CC1)c1ccc2cc(Cl)ccc2n1` (centres unmarked) [Compound 71, 6-chloro-N-(4-(2-hydroxy-3-(4-(trifluoromethyl)phenoxy)propyl)piperazin-1-yl)quinoline-2-carboxamide] was tested, and the inhibition at 0.1 µM (ATF4) was 83.4%, the inhibition at 1 µM (ATF4) was 89.9% and the IC50 (ATF4) was less than 100 nM.

Source: US11166942B2 (PRAXIS BIOTECH LLC, priority 2018, dated 2021)
